The values below come from ChEMBL document CHEMBL5518193, “Discovery of N-alkyl-N-benzyl thiazoles as novel TRPC antagonists for the treatment of glioblastoma multiforme” (Eur J Med Chem, 2024).

The target in series [1] is T1, Short transient receptor potential channel 6 (Mus musculus) (UniProt Q61143).
T1 sequence (whole entry): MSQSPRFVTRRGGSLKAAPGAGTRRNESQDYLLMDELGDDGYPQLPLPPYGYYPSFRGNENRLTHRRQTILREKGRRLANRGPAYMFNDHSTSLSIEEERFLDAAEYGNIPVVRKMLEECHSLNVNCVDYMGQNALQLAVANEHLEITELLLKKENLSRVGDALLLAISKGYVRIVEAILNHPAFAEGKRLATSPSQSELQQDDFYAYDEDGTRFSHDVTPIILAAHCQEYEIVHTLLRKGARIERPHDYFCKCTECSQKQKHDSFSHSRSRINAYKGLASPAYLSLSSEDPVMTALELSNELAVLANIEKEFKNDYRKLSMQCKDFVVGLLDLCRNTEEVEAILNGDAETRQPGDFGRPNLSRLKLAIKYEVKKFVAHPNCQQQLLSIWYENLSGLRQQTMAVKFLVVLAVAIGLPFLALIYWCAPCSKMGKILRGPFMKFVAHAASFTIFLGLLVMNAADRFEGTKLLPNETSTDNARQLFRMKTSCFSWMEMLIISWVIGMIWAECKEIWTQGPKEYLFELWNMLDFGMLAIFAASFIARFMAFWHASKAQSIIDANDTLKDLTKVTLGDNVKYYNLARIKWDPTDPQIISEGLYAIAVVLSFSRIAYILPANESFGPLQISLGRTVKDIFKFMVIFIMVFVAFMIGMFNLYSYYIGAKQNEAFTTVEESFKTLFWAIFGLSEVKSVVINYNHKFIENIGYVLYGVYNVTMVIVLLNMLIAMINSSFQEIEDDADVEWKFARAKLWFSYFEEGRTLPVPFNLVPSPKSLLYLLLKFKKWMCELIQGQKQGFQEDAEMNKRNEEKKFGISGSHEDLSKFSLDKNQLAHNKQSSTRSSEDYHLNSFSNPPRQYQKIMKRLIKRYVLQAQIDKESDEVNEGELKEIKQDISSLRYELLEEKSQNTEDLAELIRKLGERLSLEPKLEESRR
Description: Antagonist activity at mouse TRPC6 stably expressed in HEK293 cells assessed as inhibition of calcium influx at 10 uM by calcium fluorescence assay relative to control. The series is classed as cell-based. The settings on record: filed as antagonist.

The test system of series [2] is HCT-116. Description: Antiproliferative activity against human HCT-116 cells assessed as reduction in cell viability incubated for 72 hrs by MTT assay. The series is classed as functional, cell-based. The following applies: HCT-116, 72 h. For orientation: Formazan colour is commonly taken as a measure of viable cells.
A short description of series [3]: AUC (0 to t) in BALB/c mouse at 25 mg/kg, ip administered as liposome encapsulated form and measured upto 24 hrs by LC-MS/MS analysis. The series is classed as ADME, organism-based. The following applies: in vivo.
In series [4] the test system is U-87 MG. The experiment in a line: Antitumor activity against human U87 cells xenografted in BALB/c nude mouse assessed as tumor growth inhibition at 25 mg/kg/day administered as liposome encapsulated form for 15 days and measured every 3 days by vernier caliper. The series is classed as functional, U-87MG ATCC. The following applies: 360 h, time 15 day, read-out: TGI.

Series [5] in a line: AUC (0 to infinity) in BALB/c mouse at 12.5 mg/kg, ip administered as liposome encapsulated form and measured upto 24 hrs by LC-MS/MS analysis. The series is classed as ADME, organism-based. The settings on record: in vivo.
Series [6] relates to U-87 MG. Description: Antitumor activity against human U87 cells xenografted in BALB/c nude mouse assessed as tumor growth inhibition at 50 mg/kg/day administered as liposome encapsulated form for 15 days and measured every 3 days by vernier caliper. The series is classed as functional, U-87MG ATCC. The following applies: 360 h, time 15 day, read-out: TGI. Background: A xenograft is tissue or cells of one species grown in another, often human tumour cells in immunodeficient mice.

A short description of series [7]: Tmax in BALB/c mouse at 25 mg/kg, ip administered as liposome encapsulated form and measured upto 24 hrs by LC-MS/MS analysis. The series is classed as ADME, organism-based. The following applies: in vivo.
Series [8] can be described thus: AUC (0 to t) in BALB/c mouse at 12.5 mg/kg, ip administered as liposome encapsulated form and measured upto 24 hrs by LC-MS/MS analysis. The series is classed as ADME, organism-based. The settings on record: in vivo.
Series [9] is described as follows: Terminal half life in BALB/c mouse at 50 mg/kg, ip administered as liposome encapsulated form and measured upto 24 hrs by LC-MS/MS analysis. The following applies: in vivo, read-out: beta t1/2 (converted). The series is classed as ADME, organism-based.
In series [10] the test system is U-87 MG. Description: Antiproliferative activity against human U87 cells assessed as reduction in cell viability incubated for 72 hrs by MTT assay. The series is classed as functional, cell-based, U-87MG ATCC.
The nature of series [11]: Apparent clearance in BALB/c mouse at 25 mg/kg, ip administered as liposome encapsulated form and measured upto 24 hrs by LC-MS/MS analysis. The series is classed as ADME, organism-based. The settings on record: in vivo, read-out: CL(app) (converted).
A short description of series [12]: Cmax in BALB/c mouse at 12.5 mg/kg, ip administered as liposome encapsulated form and measured upto 24 hrs by LC-MS/MS analysis. The series is classed as ADME, organism-based. The following applies: in vivo.
The subject of series [13] is U-87 MG. Description: Antitumor activity against human U87 cells xenografted in BALB/c nude mouse assessed as tumor growth inhibition at 12.5 mg/kg/day administered as liposome encapsulated form for 15 days and measured every 3 days by vernier caliper. The series is classed as functional, U-87MG ATCC. The settings on record: 360 h, time 15 day, read-out: TGI.
The nature of series [14]: AUC (0 to t) in BALB/c mouse at 50 mg/kg, ip administered as liposome encapsulated form and measured upto 24 hrs by LC-MS/MS analysis. The series is classed as ADME, organism-based. The following applies: in vivo.
A short description of series [15]: Cmax in BALB/c mouse at 50 mg/kg, ip administered as liposome encapsulated form and measured upto 24 hrs by LC-MS/MS analysis. The series is classed as ADME, organism-based. The following applies: in vivo.

Each structure is given as a SMILES string.

A word on the inhibition: it is the drop in the measured response relative to a control, in per cent. A word on the IC50: it is the concentration needed to halve the response being measured. By AUC(0-t) is commonly meant the area under the concentration-time curve up to a stated or last time point. A higher AUC(0-t) goes with more exposure. One may read the AUC(0-inf) as total exposure, with the tail of the curve extrapolated. Higher therefore signals high exposure. The term Tmax denotes the time at which the peak concentration occurs. Broadly, the Cmax is the highest concentration seen after dosing.

As for `NCCN(Cc1ccc2ccccc2c1)c1nc(C(=O)Nc2ccc(O)cc2)cs1`, in series [1], the inhibition is 100%. Further, the IC50 in series [2] is 9.8 µM; in series [10] it was 5.7 µM. The AUC(0-t) at 24 h in series [3] is 6840 ng·h/mL; in [8], 2550 ng·h/mL; in series [14], 16600 ng·h/mL. Further, the inhibition in vivo at 25 mg/kg/day in series [4] came to 45.8%. In addition, the AUC(0-inf) in [5] came to 2790 ng·h/mL. In series [6], the inhibition in vivo at 50 mg/kg/day is 49.4%. Also, in series [7], the Tmax was 4 h. Also, the half-life in series [9] is 3.8 h. Moreover, in series [11], the CL/F was 60.2 mL/min/kg. Also, the Cmax in [12] was 288 ng/mL; in series [15], 2910 ng/mL. Besides, the inhibition in vivo at 12.5 mg/kg/day in [13] came out at 36.3%.
